Reference: PubChem BioAssay AID1259407 (Chemical Carcinogenesis Research Information System (CCRIS), 2018)
Activity calls are given as the source filed them. The rule behind the calls is not given here.

Tested on: CCRIS mutagenicity, Ames/micronucleus/aberration tests
Assay: CCRIS mutagenicity studies
[1] = Test System: AMES SALMONELLA TYPHIMURIUM, Strain/Indicator: TA98, Metabolic Activation: NONE, Method: PREINCUBATION
[2] = Test System: AMES SALMONELLA TYPHIMURIUM, Strain/Indicator: TA98, Metabolic Activation: NONE, Method: STANDARD PLATE
[3] = Test System: AMES SALMONELLA TYPHIMURIUM, Strain/Indicator: TA100, Metabolic Activation: NONE, Method: STANDARD PLATE
[4] = Test System: AMES SALMONELLA TYPHIMURIUM, Strain/Indicator: TA100, Metabolic Activation: RAT, LIVER, S-9, AROCLOR 1254, Method: STANDARD PLATE

How did the mutagenic call (Test System: AMES SALMONELLA TYPHIMURIUM, Strain/Indicator: TA97, Metabolic Activation: HAMSTER, LIVER, S-9, AROCLOR 1254 (10%), Method: PREINCUBATION) turn out when `CCCCCCC=O` was run?
The mutagenic call was “inactive; negative”.

And the mutagenic call (Test System: AMES SALMONELLA TYPHIMURIUM, Strain/Indicator: TA97, Metabolic Activation: HAMSTER, LIVER, S-9, AROCLOR 1254 (30%), Method: PREINCUBATION)?
The mutagenic call was “inactive; negative”.

And the mutagenic call (Test System: AMES SALMONELLA TYPHIMURIUM, Strain/Indicator: TA97, Metabolic Activation: NONE, Method: PREINCUBATION)?
Its mutagenic call is “inactive; negative”.

And the mutagenic call (Test System: AMES SALMONELLA TYPHIMURIUM, Strain/Indicator: TA97, Metabolic Activation: RAT, LIVER, S-9, AROCLOR 1254 (10%), Method: PREINCUBATION)?
Its mutagenic call is “inactive; negative”.

And the mutagenic call (Test System: AMES SALMONELLA TYPHIMURIUM, Strain/Indicator: TA97, Metabolic Activation: RAT, LIVER, S-9, AROCLOR 1254 (30%), Method: PREINCUBATION)?
Its mutagenic call is “inactive; negative”.

And the mutagenic call (Test System: AMES SALMONELLA TYPHIMURIUM, Strain/Indicator: TA98, Metabolic Activation: HAMSTER, LIVER, S-9, AROCLOR 1254 (10%), Method: PREINCUBATION)?
Its mutagenic call is “inactive; negative”.

What about the mutagenic call (Test System: AMES SALMONELLA TYPHIMURIUM, Strain/Indicator: TA98, Metabolic Activation: HAMSTER, LIVER, S-9, AROCLOR 1254 (30%), Method: PREINCUBATION) of the same compound?
Its mutagenic call is “inactive; negative”.

And the mutagenic call [1]?
Its mutagenic call is “inactive; negative”.

What about the mutagenic call (Test System: AMES SALMONELLA TYPHIMURIUM, Strain/Indicator: TA98, Metabolic Activation: RAT, LIVER, S-9, AROCLOR 1254 (10%), Method: PREINCUBATION) of the same compound?
The mutagenic call was “inactive; negative”.

And the mutagenic call (Test System: AMES SALMONELLA TYPHIMURIUM, Strain/Indicator: TA98, Metabolic Activation: RAT, LIVER, S-9, AROCLOR 1254 (30%), Method: PREINCUBATION)?
Its mutagenic call is “inactive; negative”.

And the mutagenic call (Test System: AMES SALMONELLA TYPHIMURIUM, Strain/Indicator: TA100, Metabolic Activation: HAMSTER, LIVER, S-9, AROCLOR 1254 (10%), Method: PREINCUBATION)?
The mutagenic call was “inactive; negative”.

And the mutagenic call (Test System: AMES SALMONELLA TYPHIMURIUM, Strain/Indicator: TA100, Metabolic Activation: HAMSTER, LIVER, S-9, AROCLOR 1254 (30%), Method: PREINCUBATION)?
Its mutagenic call is “inactive; negative”.

And the mutagenic call (Test System: AMES SALMONELLA TYPHIMURIUM, Strain/Indicator: TA100, Metabolic Activation: NONE, Method: PREINCUBATION)?
Its mutagenic call is “inactive; negative”.

What about the mutagenic call (Test System: AMES SALMONELLA TYPHIMURIUM, Strain/Indicator: TA100, Metabolic Activation: RAT, LIVER, S-9, AROCLOR 1254 (10%), Method: PREINCUBATION) of the same compound?
The mutagenic call was “inactive; negative”.

What about the mutagenic call (Test System: AMES SALMONELLA TYPHIMURIUM, Strain/Indicator: TA100, Metabolic Activation: RAT, LIVER, S-9, AROCLOR 1254 (30%), Method: PREINCUBATION) of the same compound?
The mutagenic call was “inactive; negative”.

And the mutagenic call (Test System: AMES SALMONELLA TYPHIMURIUM, Strain/Indicator: TA1535, Metabolic Activation: HAMSTER, LIVER, S-9, AROCLOR 1254 (10%), Method: PREINCUBATION)?
Its mutagenic call is “inactive; negative”.

What about the mutagenic call (Test System: AMES SALMONELLA TYPHIMURIUM, Strain/Indicator: TA1535, Metabolic Activation: HAMSTER, LIVER, S-9, AROCLOR 1254 (30%), Method: PREINCUBATION) of the same compound?
Its mutagenic call is “inactive; negative”.

And the mutagenic call (Test System: AMES SALMONELLA TYPHIMURIUM, Strain/Indicator: TA1535, Metabolic Activation: NONE, Method: PREINCUBATION)?
Its mutagenic call is “inactive; negative”.

What about the mutagenic call (Test System: AMES SALMONELLA TYPHIMURIUM, Strain/Indicator: TA1535, Metabolic Activation: RAT, LIVER, S-9, AROCLOR 1254 (10%), Method: PREINCUBATION) of the same compound?
The mutagenic call was “inactive; negative”.

And the mutagenic call (Test System: AMES SALMONELLA TYPHIMURIUM, Strain/Indicator: TA1535, Metabolic Activation: RAT, LIVER, S-9, AROCLOR 1254 (30%), Method: PREINCUBATION)?
The mutagenic call was “inactive; negative”.

And the mutagenic call (Test System: AMES SALMONELLA TYPHIMURIUM, Strain/Indicator: TA1537, Metabolic Activation: HAMSTER, LIVER, S-9, AROCLOR 1254 (30%), Method: PREINCUBATION)?
The mutagenic call was “inactive; negative”.

And the mutagenic call (Test System: AMES SALMONELLA TYPHIMURIUM, Strain/Indicator: TA1537, Metabolic Activation: NONE, Method: PREINCUBATION)?
The mutagenic call was “inactive; negative”.

What about the mutagenic call (Test System: AMES SALMONELLA TYPHIMURIUM, Strain/Indicator: TA1537, Metabolic Activation: RAT, LIVER, S-9, AROCLOR 1254 (30%), Method: PREINCUBATION) of the same compound?
Its mutagenic call is “inactive; negative”.

For `O=C(O)C(Cl)CCl` (stereo not given), which mutagenic call (Test System: AMES SALMONELLA TYPHIMURIUM, Strain/Indicator: TA102, Metabolic Activation: NONE, Method: STANDARD PLATE) is on record?
The mutagenic call was “inactive; negative”.

And the mutagenic call (Test System: AMES SALMONELLA TYPHIMURIUM, Strain/Indicator: TA2638, Metabolic Activation: NONE, Method: STANDARD PLATE)?
Its mutagenic call is “inactive; negative”.

What about the mutagenic call (Test System: E. COLI, Strain/Indicator: WP2 (PKM101), Metabolic Activation: NONE, Method: STANDARD PLATE) of the same compound?
Its mutagenic call is “inactive; negative”.

And the mutagenic call (Test System: E. COLI, Strain/Indicator: WP2 UVRA (PKM101), Metabolic Activation: NONE, Method: STANDARD PLATE)?
The mutagenic call was “inactive; negative”.

`CCc1c2ccccc2c(C)c2ccc3ccccc3c12` was tested. Which mutagenic call (Test System: AMES SALMONELLA TYPHIMURIUM, Strain/Indicator: TA98, Method: STANDARD PLATE) did it give?
The mutagenic call was “inactive; negative”.

And the mutagenic call (Test System: AMES SALMONELLA TYPHIMURIUM, Strain/Indicator: TA100, Metabolic Activation: RAT, LIVER, S-9, PHENOBARBITAL, Method: STANDARD PLATE)?
Its mutagenic call is “inactive; negative”.

And the mutagenic call (Test System: AMES SALMONELLA TYPHIMURIUM, Strain/Indicator: TA100, Method: STANDARD PLATE)?
Its mutagenic call is “inactive; negative”.

With `C=CC(=O)OCCCCCOC(=O)C=C` as the compound, how does the mutagenic call [2] read?
The mutagenic call was “inactive; negative”.

What about the mutagenic call (Test System: AMES SALMONELLA TYPHIMURIUM, Strain/Indicator: TA98, Metabolic Activation: RAT, LIVER, S-9, AROCLOR 1254, Method: STANDARD PLATE) of the same compound?
The mutagenic call was “inactive; negative”.

And the mutagenic call (Test System: AMES SALMONELLA TYPHIMURIUM, Strain/Indicator: TA98, Metabolic Activation: RAT, LIVER, S-9, SODIUM PHENOBARBITAL, Method: STANDARD PLATE)?
The mutagenic call was “inactive; negative”.

And the mutagenic call [3]?
The mutagenic call was “inactive; negative”.

And the mutagenic call [4]?
The mutagenic call was “inactive; negative”.

What about the mutagenic call (Test System: AMES SALMONELLA TYPHIMURIUM, Strain/Indicator: TA100, Metabolic Activation: RAT, LIVER, S-9, SODIUM PHENOBARBITAL, Method: STANDARD PLATE) of the same compound?
The mutagenic call was “inactive; negative”.

And the mutagenic call (Test System: AMES SALMONELLA TYPHIMURIUM, Strain/Indicator: TA1535, Metabolic Activation: NONE, Method: STANDARD PLATE)?
The mutagenic call was “inactive; negative”.

And the mutagenic call (Test System: AMES SALMONELLA TYPHIMURIUM, Strain/Indicator: TA1535, Metabolic Activation: RAT, LIVER, S-9, AROCLOR 1254, Method: STANDARD PLATE)?
Its mutagenic call is “inactive; negative”.

And the mutagenic call (Test System: AMES SALMONELLA TYPHIMURIUM, Strain/Indicator: TA1535, Metabolic Activation: RAT, LIVER, S-9, SODIUM PHENOBARBITAL, Method: STANDARD PLATE)?
The mutagenic call was “inactive; negative”.

What about the mutagenic call (Test System: AMES SALMONELLA TYPHIMURIUM, Strain/Indicator: TA1537, Metabolic Activation: NONE, Method: STANDARD PLATE) of the same compound?
Its mutagenic call is “inactive; negative”.

And the mutagenic call (Test System: AMES SALMONELLA TYPHIMURIUM, Strain/Indicator: TA1537, Metabolic Activation: RAT, LIVER, S-9, AROCLOR 1254, Method: STANDARD PLATE)?
Its mutagenic call is “inactive; negative”.

What about the mutagenic call (Test System: AMES SALMONELLA TYPHIMURIUM, Strain/Indicator: TA1537, Metabolic Activation: RAT, LIVER, S-9, SODIUM PHENOBARBITAL, Method: STANDARD PLATE) of the same compound?
Its mutagenic call is “inactive; negative”.

And the mutagenic call (Test System: AMES SALMONELLA TYPHIMURIUM, Strain/Indicator: TA1538, Metabolic Activation: NONE, Method: STANDARD PLATE)?
The mutagenic call was “inactive; negative”.

What about the mutagenic call (Test System: AMES SALMONELLA TYPHIMURIUM, Strain/Indicator: TA1538, Metabolic Activation: RAT, LIVER, S-9, AROCLOR 1254, Method: STANDARD PLATE) of the same compound?
The mutagenic call was “inactive; negative”.

What about the mutagenic call (Test System: AMES SALMONELLA TYPHIMURIUM, Strain/Indicator: TA1538, Metabolic Activation: RAT, LIVER, S-9, SODIUM PHENOBARBITAL, Method: STANDARD PLATE) of the same compound?
Its mutagenic call is “inactive; negative”.

Which mutagenic call (Test System: AMES SALMONELLA TYPHIMURIUM, Strain/Indicator: TA98, Metabolic Activation: NONE, Method: FLUCTUATION TEST) does the source give for `C[C@H](CCC(=O)O)[C@H]1CC[C@H]2[C@@H]3CC[C@@H]4CC(=O)CC[C@]4(C)[C@H]3C[C@@H](O)[C@]12C` here?
Its mutagenic call is “inactive; negative”.

And the mutagenic call [1]?
Its mutagenic call is “inactive; negative”.

And the mutagenic call (Test System: AMES SALMONELLA TYPHIMURIUM, Strain/Indicator: TA98, Metabolic Activation: RAT, LIVER, S-9, PCB, Method: PREINCUBATION)?
Its mutagenic call is “inactive; negative”.

What about the mutagenic call (Test System: AMES SALMONELLA TYPHIMURIUM, Strain/Indicator: TA100, Metabolic Activation: NONE, Method: FLUCTUATION TEST) of the same compound?
Its mutagenic call is “inactive; negative”.

`c1ccc2c(c1)-c1cc3ccc4ccccc4c3cc1[C@H]1N[C@@H]21` was tested. Which mutagenic call [2] did it give?
The mutagenic call was “active; positive”.

And the mutagenic call [3]?
The mutagenic call was “active; positive”.

`Cc1ccc2c(c1)c(=NC(=O)c1ccc([N+](=O)[O-])cc1)sn2C(=O)c1ccc([N+](=O)[O-])cc1` was tested. Which mutagenic call (Test System: AMES SALMONELLA TYPHIMURIUM, Strain/Indicator: TA100, Metabolic Activation: S-9, Method: STANDARD PLATE) did it give?
The mutagenic call was “active; positive”.

For `O=C1c2ccccc2Cc2ccccc21`, which mutagenic call [2] is on record?
The mutagenic call was “active; positive”.

What about the mutagenic call [3] of the same compound?
Its mutagenic call is “inactive; negative”.

And the mutagenic call [4]?
Its mutagenic call is “inactive; negative”.
